According to US8541576B2, “Substituted pyrazolo-quinazoline derivatives as kinase inhibitors” (Nerviano Medical Sciences SRL, priority 2010, dated 2013):

How the values were obtained:
[1] = test system: BaF3 PIM1 cells; assay: In vitro cell proliferation potency assay, BaF3 transfected with PIM1 (Cell Titer Glo); format: cell-based, murine; conditions: Mus musculus, incubated overnight, read-out: Prolif BaF3 PIM1 (EC50)
From the text: (§1) BaF3 is a murine interleukin-3 dependent pro-B cell line, useful as a model system for assessing both the potency and downstream signaling of kinase oncogenes (“Ba/F3 cells and their use in kinase drug discovery”, Warmuth, M, et al, (January 2007) Current Opinion in Oncology, Vol 19(1):55-60). BaF3 parental line was obtained from the DSMZ repository. BaF3 lines transfected with PIM1 or PIM2 were generated. Mouse IL-3 was purchased from R&D Systems. G418 was purchased from Clontech. Media for BaF3 parental line contained RPMI, 10% FBS, 2 mM L-Glutamine, 2 ng/mL mIL-3. Media for BaF3 PIM1 & 2 lines contained RPMI, 10% FBS, 2 mM L-Glutamine, […]. Media for MM1.S (multiple myeloma cells) line contained RPMI, 10% FBS, 2 mM L-Glutamine.
(§2) Parental cells, BaF3 PIM1 cells, BaF3 PIM2 cells, and MM1.S (multiple myeloma) cells were seeded at 2 k/well, 5 k/well, 5 k/well, and 10 k/well respectively, in a 384-well plate, at 45 μL/well. Test compound was added at 5 μL/well. BaF3 cells (parental and transfected) were incubated overnight, while MM1.S cells were incubated for 72 hours at 37° C., 5% CO2. CELL TITER GLO® Reagent (Promega) was added at 50 μL/well, the plates were incubated for 30 minutes, and their luminescence read on an HT Analyst. IC50/EC50 values for the test compound were calculated.

[2] = molecular target: T1, Full-length human PIM-1 (Homo sapiens, UniProt P11309); assay: Biochemical assay for inhibitors of PIM-1 kinase activity (trans-phosphorylation, Dowex resin, 33P-ATP); conditions: ATP 200 μM, enzyme 1 nM, Aktide 25 μM
T1 construct: Full-length human PIM-1 was expressed and purified; made in house
Experimental: Biochemical assay for inhibitors of PIM-1 kinase activity
The inhibitory activity of putative kinase inhibitors and the potency of selected compounds were determined using a trans-phosphorylation assay.
Specific peptide or protein substrates are trans-phosphorylated by their specific ser-thr or tyr kinase in the presence of ATP traced with ^33P-γ-ATP, and in the presence of their own optimal buffer and cofactors.
At the end of the phosphorylation reaction, more than 98% unlabeled ATP and radioactive ATP is captured by an excess of the ion exchange Dowex® resin; the resin then settles down to the bottom of the reaction plate by gravity.
Supernatant is subsequently withdrawn and transferred into a counting plate, then evaluated by β-counting.
The buffer for PIM-1 assay was composed of HEPES 50 mM, at pH 7.5, with 10 mM MgCl2, 1 mM DTT, 3 μM NaVO3, and 0.2 mg/ml BSA
Full-length human PIM-1 was expressed and purified as described in Bullock A N, et al., J. Biol. Chem. 2005, 280, 41675-82.
1.7 μM PIM1 was incubated 1 hour RT at 28° C. in the presence of 125 μM ATP
ATP concentration: 200 μM
Enzyme concentration: 1 nM
Substrate concentration Aktide (Chemical Abstract Service Registry Number 324029-01-8): 25 μM
The test mix consisted of:
1) 3× Enzyme mix (done in Kinase Buffer 3×), 5 μL/well
2) 3× substrate and ATP mix (done in ddH2O), together with ^33P-γ-ATP, 5 μL/well
3) 3× test compounds (diluted into ddH2O—3% DMSO)-5 μL/well
For IC50 determination, test compounds are received as a 1 mM solution in 100% DMSO and distributed into 96-well plates: compounds are then plated into the first column of a new 96-well plate (A1 to G1), 100 μl/well.
An automated station (Biomek FX®, Beckman) is used for serial dilutions, producing 1:3 dilutions in 100% DMSO, from line A1 to A10, for all the compounds in the column. Moreover, 4-5 copies of daughter plates are prepared by reformatting 5 μL of this first set of 100% DMSO dilution plates into 384-deep well plates: one copy of these serial dilution plates with the test compounds is thawed on the day of study, reconstituted at the working concentration (3-fold the final concentration) with 162 μL/well of water and used for IC50 determination assays. In a standard experiment, the highest concentration (3×) of compounds is typically 30 μM, while the lowest one is typically 1.5 nM.
Each 384-well plate generates at least one curve of the standard inhibitor staurosporine and reference wells (total enzyme activity vs. no enzymatic activity) for evaluation of Z′ and signal to background (S/B) ratio.
384-well plates, V bottom (test plates) are prepared with 5 μl of compound diluted as previously described (3×) and then placed onto a PlateTrak® 12 robotized station (Perkin Elmer; the robot has one 384-tip pipetting head for assay start, plus one 96-tip head for dispensing resin) together with one reservoir for Enzyme mix (3×) and one for ATP mix (3×).
Data are analyzed by an internally customized version of the “Assay Explorer®” SW package, which provides sigmoidal fitting of the ten-dilution curves for IC50 determination in secondary assay/hit confirmation routines.

[3] = test system: BaF3 parental line; assay: In vitro cell proliferation potency assay, BaF3 parental line with IL-3 (Cell Titer Glo); format: cell-based, murine; conditions: Mus musculus; BaF3 parental cells with mIL-3, incubated overnight; read-out: Prolif BaF3 IL3 (EC50)
From the text: as §1, §2

[4] = molecular target: T2, Full-length human PIM-2 (Homo sapiens, UniProt Q9P1W9); assay: PIM-2 kinase inhibition assay: Dowex technique; format: biochemical; conditions: ATP 4 μM, enzyme 1.5 nM, Aktide 5 μM
T2 construct: Full-length human PIM-2 was expressed and purified; made in house
Experimental: Method for PIM-2 Kinase Inhibition Assay: Dowex Technique
The buffer for PIM-2 assay was composed of HEPES 50 mM, at pH 7.5, with 1 mM MgCl2, 1 mM DTT, 3 μM Na3VO4, and 0.2 mg/ml BSA
Full-length human PIM-2 was expressed and purified as described in Fedorov O, et al. (2007) PNAS 104, 51, 20523-28.
Assay Conditions (Final Concentrations):
Enzyme concentration=1.5 nM
Aktide substrate (Chemical Abstract Service Registry Number 324029-01-8)=5 μM
See above: same procedure as described for PIM-1.

[5] = test system: MV-4-11 (biphenotypic B myelomonocytic leukemia) cells; assay: In vitro cell proliferation assay (CellTiter-Glo); format: cell-based; conditions: Homo sapiens, MV4-11, antiproliferative activity, 72 hours
Experimental: In Vitro Cell Proliferation Assay:
MV-4-11 (biphenotypic B myelomonocytic leukemia) cells (1250 cells/well) were seeded in white 384 well-plates in complete medium (RPMI 1640 or EMEM plus 10% Fetal bovine serum) and treated with compounds dissolved in 0.1% DMSO, 24 h after seeding. The cells were incubated at 37° C. and 5% CO2 and after 72 hours the plates were processed using CellTiter-Glo® assay (Promega) following the manufacturer's instruction. CellTiter-Glo® is a homogenous method based on the quantification of the ATP present, an indicator of metabolically active cells. ATP is quantified using a system based on luciferase and D-luciferin resulting into light generation. The luminescent signal is proportional to the number of cells present in culture.
Briefly 25 μl/well reagent solution was added to each wells and after 5 minutes shacking microplates were red by Envision® (PerkinElmer) luminometer. The luminescent signal was proportional to the number of cells present in culture.
Inhibitory activity was evaluated comparing treated versus control data using Assay Explorer (MDL) program. IC50 was calculated using sigmoidal interpolation curve.

[6] = test system: phosphorylation of BAD at Ser112 by PIM kinases; assay: Western blot of phospho-BAD (Ser112) in MV-4-11 cells; format: cell-based, human; conditions: different concentrations, 3 hours, compared to DMSO treated cells, FIG. 2
Experimental: To further establish that the cytotoxicity of the compounds of the present invention resulted from the inhibition of PIM kinases, we examined the phosphorylation of the pro-apoptotic protein BAD by PIM kinases in the presence or absence of PIM inhibitors in MV-4-11 leukemia cell lines.
MV-4-11 cells were plated in 6 well plates at 1.5×10^6 cells/ml and treated with different concentrations of PIM-inhibitors for 3 hours. Cells were harvested, washed with PBS buffer and lysed with lysis buffer (2% SDS, 100 mM Tris ph 7.5, 1:100 Phosphatase Inhibitor Cocktail 1 (SIGMA) and 1:100 Phosphatase Inhibitor Cocktail 2(SIGMA) and Complete Protease Inhibitor (Roche). The protein concentration in the lysates was quantified using the BCA Protein Assay Kit (Pierce). Equal amounts of protein were loaded onto 4-12% gradient Tri-glycine gel for SDS-PAGE analysis. Then the proteins were transferred to PVDF membranes (Millipore) for Western Blotting. Membranes were probed with the antibody for phospho-Bad (Ser112) (Cell Signaling Technologies).

T1 sequence (P11309 whole entry): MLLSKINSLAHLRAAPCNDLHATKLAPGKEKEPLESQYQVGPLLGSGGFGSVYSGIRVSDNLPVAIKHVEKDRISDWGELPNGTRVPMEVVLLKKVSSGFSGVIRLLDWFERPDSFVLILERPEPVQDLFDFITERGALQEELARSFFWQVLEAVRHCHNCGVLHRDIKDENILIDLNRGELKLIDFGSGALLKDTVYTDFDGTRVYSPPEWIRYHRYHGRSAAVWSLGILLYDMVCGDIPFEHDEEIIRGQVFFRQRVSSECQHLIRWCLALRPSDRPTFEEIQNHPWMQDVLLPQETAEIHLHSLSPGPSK
T2 sequence (Q9P1W9 whole entry): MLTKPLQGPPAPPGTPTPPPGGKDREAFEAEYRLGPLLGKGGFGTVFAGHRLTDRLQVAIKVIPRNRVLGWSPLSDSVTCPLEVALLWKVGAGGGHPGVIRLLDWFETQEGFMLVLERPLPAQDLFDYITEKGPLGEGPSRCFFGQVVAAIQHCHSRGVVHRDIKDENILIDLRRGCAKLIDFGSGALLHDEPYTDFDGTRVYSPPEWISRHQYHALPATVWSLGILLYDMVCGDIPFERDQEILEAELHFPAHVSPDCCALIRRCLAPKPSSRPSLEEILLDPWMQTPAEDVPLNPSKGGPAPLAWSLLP

IC50 [2] [nM]	IC50 [4] [nM]	IC50 [5] [nM]	SMILES	EC50 [1] [nM]	EC50 [3] [µM]	levels of pBAD (s112) by western blot [6]
4	15	192	CN1CCN(c2ccc(Oc3ncc4ccc5c(C(N)=O)nn(C(C)(C)C)c5c4n3)cc2)CC1 [Compound 51, 1-tert-butyl-8-[4-(4-methylpiperazin-1-yl)phenoxy]-1H-pyrazolo[4,3-h]quinazoline-3-carboxamide]	210	9.3	
1	2	103	CSc1ncc2ccc3c(C(N)=O)nn(C(C)(C)C)c3c2n1 [Compound 85, 1-tert-butyl-8-(methylsulfanyl)-1H-pyrazolo[4,3-h]quinazoline-3-carboxamide]	310	13	dose dependent reduction
13	21	866	CN(C)c1ncc2ccc3c(C(N)=O)nn(C(C)(C)C)c3c2n1 [Compound 52, 1-tert-butyl-8-(dimethylamino)-1H-pyrazolo[4,3-h]quinazoline-3-carboxamide]			
20	527	308	CC(=O)c1cc(N2CCNCC2)ccc1Oc1ncc2ccc3c(C(N)=O)nn(C)c3c2n1 [Compound 38, 8-[2-acetyl-4-(piperazin-1-yl)phenoxy]-1-methyl-1H-pyrazolo[4,3-h]quinazoline-3-carboxamide]			
4	498	308	Cn1nc(C(N)=O)c2ccc3cnc(Oc4ccc(N5CCNCC5)cc4)nc3c21 [Compound 27, 1-methyl-8-[4-(piperazin-1-yl)phenoxy]-1H-pyrazolo[4,3-h]quinazoline-3-carboxamide]			
33	861	520	CN1CCN(c2ccc(Oc3ncc4ccc5c(C(N)=O)nn(C)c5c4n3)cc2)CC1 [Compound 26, 1-methyl-8-[4-(4-methylpiperazin-1-yl)phenoxy]-1H-pyrazolo[4,3-h]quinazoline-3-carboxamide]			

SMILES	IC50 [2] [nM]	IC50 [4] [nM]	IC50 [5] [nM]	EC50 [1] [nM]	EC50 [3] [µM]	levels of pBAD (s112) by western blot [6]
NC(=O)c1nn(C2CCC(N)CC2)c2c1ccc1cnc(-c3ccsc3)nc12 (centres unmarked) [Compound 112, 1-(4-aminocyclohexyl)-8-(thiophen-3-yl)-1H-pyrazolo[4,3-h]quinazoline-3-carboxamide]	300	43		1300	2	
CSc1ncc2ccc3c(C(N)=O)nn(CCN)c3c2n1 [Compound 15, 1-(2-aminoethyl)-8-(methylsulfanyl)-1H-pyrazolo[4,3-h]quinazoline-3-carboxamide]	143	282	1430			
CSc1ncc2ccc3c(C(N)=O)nn(C4CCC(N)CC4)c3c2n1 (centres unmarked) [Compound 93, 1-(4-aminocyclohexyl)-8-(methylsulfanyl)-1H-pyrazolo[4,3-h]quinazoline-3-carboxamide]	1	1	448	44	7.9	
CSc1ncc2ccc3c(C(N)=O)nn([C@@H]4C[C@H]5CC[C@@H](C4)N5)c3c2n1 [Compound 99, 1-[(3-exo)-8-azabicyclo[3.2.1]oct-3-yl]-8-(methylsulfanyl)-1H-pyrazolo[4,3-h]quinazoline-3-carboxamide]	16	33	102			
